Assay results as given in patent US6395759B1, “Substituted benzamide derivatives and pharmaceutical compositions containing them” (SmithKline Beecham p.l.c., priority 1999, dated 2002).

What was measured:
[1] = system: electrically-induced seizures in mice; assay: Maximal electroshock seizure threshold (MEST) test; assay type: in vivo; conditions: 10 mg/kg po, suspension in methyl cellulose, one hour post dosing
Protocol: The maximal electroshock seizure threshold (MEST) test in rodents is particularly sensitive for detecting potential anticonvulsant properties^1. In this model, anticonvulsant agents elevate the threshold to electrically-induced seizures whilst proconvulsants lower the seizure threshold.
Mice (naive, male, Charles River, U.K. CD-1 strain, 25-30 g) are randomly assigned to groups of 10-20 and dosed orally or intraperitoneally at a dose volume of 10 ml/kg with various doses of compound (0.3-300 mg/kg) or vehicle. Mice are then subjected at 30 or 60 min post dose to a single electroshock (0.1 sec, 50 Hz, sine wave form) administered via corneal electrodes. The mean current and standard error required to induce a tonic seizure in 50% (CC50) of the mice in a particular treatment group is determined by the ‘up and down’ method of Dixon and Mood (1948)^2. Statistical comparisons between vehicle- and drug-treated groups are made using the method of Litchfield and Wilcoxon (1949)^3.
In control animals the CC50 is usually 14-18 mA. […] If a tonic convulsion does occur, then the current is decreased, and so on until all the animals in the group have been tested.
The percentage increase or decrease in CC50 for each group compared to the control is calculated. […]

[2] = biological target: novel receptor obtainable from rat forebrain tissue; assay: [3H]-Compound A radioligand binding assay; conditions: competition with [3H]-Compound A (20 nM)
Protocol: WO 92/22293 (SmithKline Beecham) discloses compounds having anti-convulsant activity, including inter alia the compound trans-(+)-6-acetyl-4S-(4-fluorobenzoylamino)-3,4-dihydro-2,2-dimethyl-2H-1-benzopyran-3R-ol (hereinafter referred to as Compound A). […] The affinity of test compounds to the novel receptor site is assessed as follows.
Whole forebrain tissue is obtained from rats. The tissue is first homogenised in buffer (usually 50 mM Tris/HCl, pH 7.4). The homogenised tissue is washed by centrifugation and resuspension in the same buffer, then stored at −70° C. until used.
To carry out the radioligand binding assay, aliquots of tissue prepared as above (usually at a concentration of 1-2 mg protein/ml) are mixed with aliquots of [3H]-Compound A dissolved in buffer. The final concentration of [3H]-Compound A in the mixture is usually 20 nM. The mixture is incubated at room temperature for 1 hour. [3H]-Compound A bound to the tissue is then separated from unbound [3H]-Compound A by filtration through Whatman GF/B glass fibre filters. The filters are then washed rapidly with ice-cold buffer. The amount of radioactivity bound to the tissue trapped on the filters is measured by addition of liquid scintillation cocktail to the filters followed by counting in a liquid scintillation counter. […]

pKi value [2]: greater than 7
SMILES: COc1cc(C(C)(C)C)ccc1C(=O)Nc1cccc(C2CCCN2)c1 (racemic) [Example 1, (±)-4-tert-Butyl-2-methoxy-N-(3-pyrrolidin-2-yl-phenyl)-benzamide, monohydroclhloride]
increase in seizure threshold (CC50) compared to control [1]: 53%
